# Patent US11780893B2, “Kv1.3 blockers” (Zealand Pharma A/S, priority 2019, dated 2023)
# Bridge positions count the residues as written; N and C are the ends. Square brackets hold non-standard residues; d marks the D form. Peptide text beside a SMILES is read from it. Nle = CCCC[C@H](N)C(=O)O
# Target: T1, human Kv1.3 voltage-gated K+ channel (Homo sapiens, UniProt P22001)
# T1 construct: host or cells: CHO-DUKX
# Assay: cell-based
# Conditions: inhibition of thallium flux, CHO-DUKX cells with human Kv1.3; read-out: IC50
# T1 sequence (P22001 whole entry): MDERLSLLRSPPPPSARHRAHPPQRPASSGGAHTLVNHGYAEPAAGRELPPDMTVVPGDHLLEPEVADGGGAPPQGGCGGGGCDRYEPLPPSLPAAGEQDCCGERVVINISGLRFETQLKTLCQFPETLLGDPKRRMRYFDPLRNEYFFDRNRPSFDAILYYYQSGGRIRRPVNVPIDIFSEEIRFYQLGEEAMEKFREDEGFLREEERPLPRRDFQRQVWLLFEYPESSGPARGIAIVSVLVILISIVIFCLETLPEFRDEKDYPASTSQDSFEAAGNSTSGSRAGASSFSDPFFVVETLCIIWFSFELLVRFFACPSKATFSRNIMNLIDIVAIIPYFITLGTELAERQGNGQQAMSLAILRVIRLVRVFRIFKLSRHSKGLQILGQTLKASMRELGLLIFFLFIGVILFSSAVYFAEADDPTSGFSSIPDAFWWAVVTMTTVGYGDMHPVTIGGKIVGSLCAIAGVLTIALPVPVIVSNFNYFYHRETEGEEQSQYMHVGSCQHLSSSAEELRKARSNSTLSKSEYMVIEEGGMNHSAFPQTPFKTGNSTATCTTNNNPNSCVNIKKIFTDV
row,Compound,IC50
1,"CCCC[C@H](NC(=O)[C@@H]1CCCN1)C(=O)N[C@@H](CCC(=O)O)C(=O)N[C@@H](CCCC)C(=O)N[C@@H](CCCNC(=N)N)C(=O)N[C@H]1CSSC[C@@H]2NC(=O)[C@H](CCCCN)NC(=O)CNC(=O)[C@H](Cc3ccccc3)NC(=O)[C@H]([C@@H](C)CC)NC(=O)[C@H](CO)NC(=O)CNC(=O)[C@H]([C@@H](C)CC)NC(=O)[C@H](C)NC(=O)[C@H](C)NC(=O)[C@H](CC(C)C)NC(=O)[C@@H]3CSSC[C@@H](C(=O)N[C@@H](Cc4ccc(O)cc4)C(=O)N4CCC[C@H]4C(=O)N[C@@H](CCCNC(=N)N)C(=O)N[C@@H](Cc4c[nH]cn4)C(=O)O)NC(=O)[C@H](CCCCN)NC(=O)[C@H](CSSC[C@H](NC(=O)[C@H](CCC(=O)O)NC(=O)[C@H](C(C)C)NC(=O)[C@H](CO)NC(=O)[C@H](C)NC(=O)[C@H](CO)NC1=O)C(=O)N[C@@H](CCCCN)C(=O)N[C@@H](CCC(N)=O)C(=O)N[C@@H](CCCCN)C(=O)N3)NC(=O)[C@H](CCCCN)NC(=O)[C@H](CCCCN)NC(=O)[C@H](CC(N)=O)NC(=O)[C@H](CCCC)NC2=O [Compound 125] (H-P[Nle]E[Nle]RCSASVECKQKCLAAIGSIFGKC[Nle]NKKCKCYPRH-OH; disulfide 6-27, 12-32, 16-34)",0.383 nM
2,"CCCC[C@H](NC(=O)[C@@H]1CCCN1)C(=O)N[C@@H](CCC(=O)O)C(=O)N[C@@H](CCCC)C(=O)N[C@@H](CCCNC(=N)N)C(=O)N[C@H]1CSSC[C@@H]2NC(=O)[C@H](CCCCN)NC(=O)CNC(=O)[C@H](Cc3ccccc3)NC(=O)[C@H]([C@@H](C)CC)NC(=O)[C@H](CO)NC(=O)CNC(=O)[C@H]([C@@H](C)CC)NC(=O)[C@H](C)NC(=O)[C@H](C)NC(=O)[C@H](CC(C)C)NC(=O)[C@@H]3CSSC[C@@H](C(=O)N[C@@H](Cc4ccc(O)cc4)C(=O)N4CCC[C@H]4C(=O)N[C@@H](CCCNC(=N)N)C(=O)N[C@@H](CCC(=O)O)C(=O)O)NC(=O)[C@H](CCCCN)NC(=O)[C@H](CSSC[C@H](NC(=O)[C@H](CCC(=O)O)NC(=O)[C@H](C(C)C)NC(=O)[C@H](CO)NC(=O)[C@H](C)NC(=O)[C@H](CO)NC1=O)C(=O)N[C@@H](CCCCN)C(=O)N[C@@H](CCC(N)=O)C(=O)N[C@@H](CCCCN)C(=O)N3)NC(=O)[C@H](CCCCN)NC(=O)[C@H](CCCCN)NC(=O)[C@H](CC(N)=O)NC(=O)[C@H](CCCC)NC2=O [Compound 126] (H-P[Nle]E[Nle]RCSASVECKQKCLAAIGSIFGKC[Nle]NKKCKCYPRE-OH; disulfide 6-27, 12-32, 16-34)",6.49 nM
3,"CCCC[C@H](NC(=O)[C@@H]1CCCN1)C(=O)N[C@@H](CCC(=O)O)C(=O)N[C@@H](CCCC)C(=O)N[C@@H](CCCNC(=N)N)C(=O)N[C@H]1CSSC[C@@H]2NC(=O)[C@H](CCCCN)NC(=O)CNC(=O)[C@H](Cc3ccccc3)NC(=O)[C@H]([C@@H](C)CC)NC(=O)[C@H](CO)NC(=O)CNC(=O)[C@H]([C@@H](C)CC)NC(=O)[C@H](C)NC(=O)[C@H](C)NC(=O)[C@H](CC(C)C)NC(=O)[C@@H]3CSSC[C@@H](C(=O)N[C@@H](Cc4ccc(O)cc4)C(=O)N4CCC[C@H]4C(=O)N[C@@H](CCCNC(=N)N)C(=O)N[C@@H](CCCCN)C(=O)N[C@@H](CO)C(=O)O)NC(=O)[C@H](CCCCN)NC(=O)[C@H](CSSC[C@H](NC(=O)[C@H](CCC(=O)O)NC(=O)[C@H](C(C)C)NC(=O)[C@H](CO)NC(=O)[C@H](C)NC(=O)[C@H](CO)NC1=O)C(=O)N[C@@H](CCCCN)C(=O)N[C@@H](CCC(N)=O)C(=O)N[C@@H](CCCCN)C(=O)N3)NC(=O)[C@H](CCCCN)NC(=O)[C@H](CCCCN)NC(=O)[C@H](CC(N)=O)NC(=O)[C@H](CCCC)NC2=O [Compound 127] (H-P[Nle]E[Nle]RCSASVECKQKCLAAIGSIFGKC[Nle]NKKCKCYPRKS-OH; disulfide 6-27, 12-32, 16-34)",0.562 nM
4,"CCCC[C@H](NC(=O)[C@@H]1CCCN1)C(=O)N[C@@H](CCC(=O)O)C(=O)N[C@@H](CCCC)C(=O)N[C@@H](CCCNC(=N)N)C(=O)N[C@H]1CSSC[C@@H]2NC(=O)[C@H](CCCCN)NC(=O)CNC(=O)[C@H](Cc3ccccc3)NC(=O)[C@H]([C@@H](C)CC)NC(=O)[C@H](CO)NC(=O)CNC(=O)[C@H]([C@@H](C)CC)NC(=O)[C@H](C)NC(=O)[C@H](C)NC(=O)[C@H](CC(C)C)NC(=O)[C@@H]3CSSC[C@@H](C(=O)N[C@@H](Cc4ccc(O)cc4)C(=O)N4CCC[C@H]4C(=O)N[C@@H](CCCNC(=N)N)C(=O)N[C@@H](Cc4ccccc4)C(=O)N[C@@H](CCC(=O)O)C(=O)O)NC(=O)[C@H](CCCCN)NC(=O)[C@H](CSSC[C@H](NC(=O)[C@H](CCC(=O)O)NC(=O)[C@H](C(C)C)NC(=O)[C@H](CO)NC(=O)[C@H](C)NC(=O)[C@H](CO)NC1=O)C(=O)N[C@@H](CCCCN)C(=O)N[C@@H](CCC(N)=O)C(=O)N[C@@H](CCCCN)C(=O)N3)NC(=O)[C@H](CCCCN)NC(=O)[C@H](CCCCN)NC(=O)[C@H](CC(N)=O)NC(=O)[C@H](CCCC)NC2=O [Compound 128] (H-P[Nle]E[Nle]RCSASVECKQKCLAAIGSIFGKC[Nle]NKKCKCYPRFE-OH; disulfide 6-27, 12-32, 16-34)",7.18 nM
5,"CCCC[C@H](NC(=O)[C@@H]1CCCN1)C(=O)N[C@@H](CCC(=O)O)C(=O)N[C@@H](CCCC)C(=O)N[C@@H](CCCNC(=N)N)C(=O)N[C@H]1CSSC[C@@H]2NC(=O)[C@H](CCCCN)NC(=O)CNC(=O)[C@H](Cc3ccccc3)NC(=O)[C@H]([C@@H](C)CC)NC(=O)[C@H](CO)NC(=O)CNC(=O)[C@H]([C@@H](C)CC)NC(=O)[C@H](C)NC(=O)[C@H](C)NC(=O)[C@H](CC(C)C)NC(=O)[C@@H]3CSSC[C@@H](C(=O)N[C@@H](Cc4ccc(O)cc4)C(=O)N4CCC[C@H]4C(=O)N[C@@H](CCCNC(=N)N)C(=O)N[C@@H](Cc4c[nH]cn4)C(=O)N[C@@H](CCCNC(=N)N)C(=O)O)NC(=O)[C@H](CCCCN)NC(=O)[C@H](CSSC[C@H](NC(=O)[C@H](CCC(=O)O)NC(=O)[C@H](C(C)C)NC(=O)[C@H](CO)NC(=O)[C@H](C)NC(=O)[C@H](CO)NC1=O)C(=O)N[C@@H](CCCCN)C(=O)N[C@@H](CCC(N)=O)C(=O)N[C@@H](CCCCN)C(=O)N3)NC(=O)[C@H](CCCCN)NC(=O)[C@H](CCCCN)NC(=O)[C@H](CC(N)=O)NC(=O)[C@H](CCCC)NC2=O [Compound 129] (H-P[Nle]E[Nle]RCSASVECKQKCLAAIGSIFGKC[Nle]NKKCKCYPRHR-OH; disulfide 6-27, 12-32, 16-34)",0.143 nM
6,"CCCC[C@H](NC(=O)[C@@H]1CCCN1)C(=O)N[C@@H](CCC(=O)O)C(=O)N[C@@H](CCCC)C(=O)N[C@@H](CCCNC(=N)N)C(=O)N[C@H]1CSSC[C@@H]2NC(=O)[C@H](CCCCN)NC(=O)CNC(=O)[C@H](Cc3ccccc3)NC(=O)[C@H]([C@@H](C)CC)NC(=O)[C@H](CO)NC(=O)CNC(=O)[C@H]([C@@H](C)CC)NC(=O)[C@H](C)NC(=O)[C@H](C)NC(=O)[C@H](CC(C)C)NC(=O)[C@@H]3CSSC[C@@H](C(=O)N[C@@H](Cc4ccc(O)cc4)C(=O)N4CCC[C@H]4C(=O)N[C@@H](CCCNC(=N)N)C(=O)N[C@@H](C)C(=O)N[C@@H](CCCCN)C(=O)O)NC(=O)[C@H](CCCCN)NC(=O)[C@H](CSSC[C@H](NC(=O)[C@H](CCC(=O)O)NC(=O)[C@H](C(C)C)NC(=O)[C@H](CO)NC(=O)[C@H](C)NC(=O)[C@H](CO)NC1=O)C(=O)N[C@@H](CCCCN)C(=O)N[C@@H](CCC(N)=O)C(=O)N[C@@H](CCCCN)C(=O)N3)NC(=O)[C@H](CCCCN)NC(=O)[C@H](CCCCN)NC(=O)[C@H](CC(N)=O)NC(=O)[C@H](CCCC)NC2=O [Compound 130] (H-P[Nle]E[Nle]RCSASVECKQKCLAAIGSIFGKC[Nle]NKKCKCYPRAK-OH; disulfide 6-27, 12-32, 16-34)",0.529 nM
